Reference: patent publication US6716836B2, “Non-nucleoside reverse transcriptase inhibitors” (Boehringer Ingelheim (Canada) Ltd., priority 2001, dated 2004)

Columns and labels:
[1] = biological target: T1, HIV-1 RT double mutant K103N/Y181C (Human immunodeficiency virus type 1 group M subtype B, UniProt P04585, K690N/Y768C); test: Reverse Transcriptase (RT) assay, double mutant enzyme; assay type: biochemical
T1 construct: Heterodimeric RT was eluted using a descending gradient; made in house; host or cells: E. coli (inferred; the text describes only wild type and Y181C preparations)
Description: (§1) Among the enzymes for which Human Immunodeficiency Virus (HIV-1) encodes is a reverse transcriptase (1), so-named because it transcribes a DNA copy from an RNA template. This activity can be quantitatively measured in a cell-free enzyme assay, which has been previously described (2), and is based upon the observation that reverse transcriptase is able to use a synthetic template poly r(C) primed with oligo d(G) to transcribe a radio-labelled, acid-precipitable DNA strand utilising ^3H-dGTP as a substrate. The assay described below utilises the wild type (WT) enzyme, which is the predominant form of the enzyme observed with patients infected with HIV-1. Utilisation of mutant RT enzymes (for example, Y181C, prepared by site-directed mutagenesis in which the tyrosine residue at codon 181 has been replaced by a cysteine residue, or the mutants K103N, V106A and Y188C) and analogous assay conditions allows compounds to be evaluated for their effectiveness at inhibiting the mutant enzymes.
(§2) The HIV-1 RT expression clone, pKRT2, was obtained from Yale University (3). An overnight culture, grown in 2×YT medium (37° C., 225 rpm) (4), supplemented with 100 μg/mL ampicillin for positive selection was used to inoculate the 2×YT medium. The culture was incubated (37° C., 225 rpm) until it reached an OD600 of 0.6-0.9. At that time, the repressor inhibitor IPTG (isopropyl P-D-thiogalactopyranoside) was added to 0.5 mM, and the mixture was incubated for an additional 2 hours.
(§3) Purification of recombinant reverse transcriptase was performed using a combination of methods previously described (5). This procedure is summarised briefly as follows: E. Coli containing RT-1 wt or RT-1 (Y181 C) were suspended in 50 mM MES, pH 6.0 containing 10% glycerol, lysed in a French press, centrifuged, and the supernates discarded. Lysate pellets were extracted with buffer A (50 mM MES, pH 6.0, 100 mM KCl, 50 mM KPi, 10% glycerol, 0.02% hexyl-β-glucoside), and re-centrifuged; nucleic acid in supernates was precipitated with 0.1% polyethylenimine. […] Bound RT was eluted with a gradient of 0 to 1.0M
(§4) (NH4)2 SO4 in buffer B. Heparin-Sepharose fractions containing RT were concentrated (Amicon YM-30 membrane), combined with equal volumes of 2.0M (NH4)2SO4 in buffer B and injected onto a 21.5×150 mm TSK Phenyl-5PW HIC HPLC column (Phenomenex). Heterodimeric RT was eluted using a descending gradient of 1.0M to 0M (NH4)2SO4 in buffer B, concentrated, and stored at 4° C.
(§5) The 2.4× concentrated stock reaction mixture was aliquoted and stored at −20° C. The mixture is stable and can be thawed for use in each assay. This enzyme assay has been adapted to a 96 well microtiter plate system, and has been previously described (6). Tris buffer (50 mM, pH 7.8), vehicle (solvent diluted to match the compound dilution), or compounds in vehicle were dispensed into 96-well microtiter plates (10 μL/well; 3 wells/compound). The HIV-1 RT enzyme was thawed, diluted in 50 mM Tris pH 7.8 containing 0.05% Chaps to give 1.5 nM enzyme and 25 μL were dispensed per well. Ten μL of 0.5M EDTA were added to the first three wells of the microtiter plate. EDTA chelates the Mg^2+ present and prevents reverse transcription. This group served as background polymerisation, which was subtracted, from all other groups. Twenty-five μl of the 2.4× reaction mixture was added to all wells and the assay was allowed to incubate at room temperature for 30 minutes. The assay was terminated by precipitating the DNA in each well with 60 μL of sodium pyrophosphate (2% w/v) in 10% trichloroacetic acid (TCA) (10% w/v). The microtiter plate was incubated for 15 minutes at 4° C. and the precipitate was harvested onto #30 glass fibre paper (Schleicher & Schuell) using a Tomtech 96-well harvester. The filters were dried, placed in plastic bags with Betaplate scintillation cocktail (Pharmacia/LKB) and counted in the Betaplate counter (Pharmacia/LKB).
(§6) The calculation for percent inhibition is as follows: [formula] […]

[2] = test system: HIV replication in T-lymphocytes, virus coding for mutant enzyme K103N/Y181C; test: ELISA (p24) assay for activity in cell culture, mutant virus; assay type: cell-based; conditions: Human immunodeficiency virus 1, T-lymphocyte, read-out: EC50 K103N/Y181C
Method: (§7) ELISA Assay for Assessment of Activity in Cell Culture
(§8) Compounds of the invention were tested for their ability to inhibit HIV replication in cell culture. Viruses coding for Wild type and mutant enzymes were used. T-lymphocytes were infected with the virus, infected cells were incubated in the presence of varying amounts of compounds of the invention, and an ELISA assay for the viral protein p24 was used to quantify viral replication. Table 9 lists the results as EC50 (nM).

[3] = biological target: T2, HIV-1 RT wild type (WT) (Human immunodeficiency virus type 1 group M subtype B, UniProt P04585); test: Reverse Transcriptase (RT) assay, wild type enzyme; assay type: biochemical
T2 construct: Heterodimeric RT was eluted using a descending gradient; made in house; host or cells: E. coli
Description: as §1, §2, §3, §4, §5, §6

[4] = test system: HIV replication in T-lymphocytes, virus coding for wild type enzyme; test: ELISA (p24) assay for activity in cell culture, wild type virus; assay type: cell-based; conditions: Human immunodeficiency virus 1, T-lymphocyte, read-out: EC50 WT RT
Method: as §7, §8

Compound | IC50 [1] | EC50 [2] | IC50 [3] | EC50 [4]
CCN1c2ncc(CCOc3cccc4c3CCS(=O)(=O)N4CCN3CCOCC3)cc2C(=O)N(C)c2cccnc21 [Compound 617] | < 100 nM | < 100 nM | < 100 nM | < 100 nM
CCN1c2ncc(CCOc3cccc4c3CCS(=O)(=O)N4Cc3ccncc3)cc2C(=O)N(C)c2cccnc21 [Compound 621] | < 100 nM | < 100 nM | < 100 nM | < 100 nM
CCN1c2ncc(CCOc3cccc4c3CCS(=O)(=O)N4CCCC(=O)O)cc2C(=O)N(C)c2cccnc21 [Compound 625] | < 100 nM | < 100 nM | < 100 nM | < 100 nM
CCOC(=O)CCCN1c2cccc(OCCc3cnc4c(c3)C(=O)N(C)c3cccnc3N4CC)c2CCS1(=O)=O [Compound 628] | < 100 nM | < 100 nM | < 100 nM | < 100 nM
CCN1c2ncc(CCOc3cccc4c3CCS(=O)(=O)N4Cc3cccnc3)cc2C(=O)N(C)c2cccnc21 [Compound 629] | < 100 nM | < 100 nM | < 100 nM | < 100 nM
CCN1c2ncc(CCOc3cccc4c3CCS(=O)(=O)N4CCCS(N)(=O)=O)cc2C(=O)N(C)c2cccnc21 [Compound 630] | < 100 nM | < 100 nM | < 100 nM | < 100 nM
CCN1c2ncc(CCOc3cccc4c3CCS(=O)(=O)N4CC(=O)NS(C)(=O)=O)cc2C(=O)N(C)c2cccnc21 [Compound 631] | < 100 nM | 100 to 1000 nM | < 100 nM | 100 to 1000 nM
CCN1c2ncc(CCOc3cccc4c3CCS(=O)(=O)N4CCCC(=O)NN)cc2C(=O)N(C)c2cccnc21 [Compound 636] | < 100 nM | < 100 nM | < 100 nM | < 100 nM
CCN1c2ncc(CCOc3cccc4c3CCS(=O)(=O)N4CC(=O)NC(C)(C)C(=O)O)cc2C(=O)N(C)c2cccnc21 [Compound 637] | < 100 nM | < 100 nM | < 100 nM | < 100 nM
CCN1c2ncc(CCOc3cccc4c3CCS(=O)(=O)N4CC(=O)NC3(C(=O)O)CC3)cc2C(=O)N(C)c2cccnc21 [Compound 638] | < 100 nM | < 100 nM | < 100 nM | < 100 nM
CCN1c2ncc(CCOc3cccc4c3CCS(=O)(=O)N4CCOC(N)=O)cc2C(=O)N(C)c2cccnc21 [Compound 639] | < 100 nM | < 100 nM | < 100 nM | < 100 nM
CCN1c2ncc(CCOc3cccc4c3CCS(=O)(=O)N4CCCC(=O)NNCC(F)(F)F)cc2C(=O)N(C)c2cccnc21 [Compound 640] | < 100 nM | < 100 nM | < 100 nM | < 100 nM
CCN1c2ncc(CCOc3cccc4c3CCS(=O)(=O)N4CC(=O)NC(C)(C)C(=O)NN)cc2C(=O)N(C)c2cccnc21 [Compound 641] | < 100 nM | < 100 nM | < 100 nM | < 100 nM
CCN1c2ncc(CCOc3cccc4c3CCN(CCCC(=O)O)S4(=O)=O)cc2C(=O)N(C)c2cccnc21 [Compound 713] | < 100 nM | < 100 nM | < 100 nM | < 100 nM
CCN1c2ncc(CCOc3cccc4c3CCN(CCCC(=O)NN)S4(=O)=O)cc2C(=O)N(C)c2cccnc21 [Compound 714] | < 100 nM | < 100 nM | < 100 nM | < 100 nM
CCN1c2ncc(CCOc3cccc4c3C=CS(=O)(=O)N4C)cc2C(=O)N(C)c2cccnc21 [Compound 803] | < 100 nM | < 100 nM | < 100 nM | < 100 nM
CCN1c2ncc(CCOc3cccc4c3C=CS(=O)(=O)N4C)cc2C(=O)Nc2c(C)ccnc21 [Compound 804] | < 100 nM | < 100 nM | < 100 nM | < 100 nM
CCN1c2ncc(CCOc3cccc4c3C=CS(=O)(=O)N4CCCC(=O)O)cc2C(=O)N(C)c2cccnc21 [Compound 809] | 100 to 1000 nM | < 100 nM | < 100 nM | < 100 nM
